For assay [1], the target named is 5-hydroxytryptamine receptor 1B (Rattus norvegicus, UniProt P28564). The class given is cell membranes, Wistar, Cerebral cortex, Membrane. Also: in other assays of this panel Not Active means under 50% inhibition at 10 µM.
Assay [2] deals with T1, Cholecystokinin receptor type A (Homo sapiens, UniProt P32238).
T1 sequence (P32238 whole entry): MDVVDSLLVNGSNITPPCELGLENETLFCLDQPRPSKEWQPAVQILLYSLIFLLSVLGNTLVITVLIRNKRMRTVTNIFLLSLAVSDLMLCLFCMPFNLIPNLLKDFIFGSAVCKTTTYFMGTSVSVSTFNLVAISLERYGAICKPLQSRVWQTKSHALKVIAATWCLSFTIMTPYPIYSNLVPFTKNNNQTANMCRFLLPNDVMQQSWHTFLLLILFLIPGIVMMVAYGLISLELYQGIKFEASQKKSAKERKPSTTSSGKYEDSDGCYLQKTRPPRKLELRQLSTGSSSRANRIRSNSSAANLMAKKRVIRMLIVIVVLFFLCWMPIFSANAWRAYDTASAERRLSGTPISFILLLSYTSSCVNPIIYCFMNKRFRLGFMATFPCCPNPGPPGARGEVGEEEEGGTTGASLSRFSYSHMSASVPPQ
The class given is cell membranes, Membrane. The settings on record: 1321-n1.

Assay [3] has as its target C-C chemokine receptor type 2 (Homo sapiens, UniProt P41597). The assay is classed as cell membranes, CHO-K1, Membrane. The settings on record: cho-k1. Also: in other assays of this panel Not Active means under 50% inhibition at 10 µM.
Assay [4] has as its target T2, C-X-C chemokine receptor type 2 (Homo sapiens, UniProt P25025). Also: in other assays of this panel Not Active means under 50% inhibition at 10 µM.
T2 sequence (P25025 whole entry): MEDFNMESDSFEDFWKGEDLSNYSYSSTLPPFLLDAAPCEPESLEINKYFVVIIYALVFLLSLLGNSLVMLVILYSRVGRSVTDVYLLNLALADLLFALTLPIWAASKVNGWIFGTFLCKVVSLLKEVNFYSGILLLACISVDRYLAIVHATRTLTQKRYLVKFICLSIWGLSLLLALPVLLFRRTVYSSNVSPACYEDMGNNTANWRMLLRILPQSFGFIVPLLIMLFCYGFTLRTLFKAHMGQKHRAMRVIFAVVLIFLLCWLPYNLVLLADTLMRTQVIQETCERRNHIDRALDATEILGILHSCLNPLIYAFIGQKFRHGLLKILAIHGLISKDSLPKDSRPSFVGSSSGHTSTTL
The class given is cell membranes, Membrane. The settings on record: cho-k1.

Assay [5] in a line: DRUGMATRIX: ATPase, Na+/K+ enzyme inhibition (substrate: ATP). The assay is classed as tissue-based, Sus scrofa, Heart. The settings on record: Not Active = under 50% inhibition at 10 µM.
The target in assay [6] is Tyrosine-protein kinase Lck (Homo sapiens, UniProt P06239). Briefly: DRUGMATRIX: Protein Tyrosine Kinase, LCK enzyme inhibition (substrate: Poly(Glu:Tyr)). As to conditions: Not Active = under 50% inhibition at 10 µM. The class given is cell-based, Insect cells.
Assay [7] can be described thus: DRUGMATRIX: GABAA, Chloride Channel, TBOB radioligand binding (ligand: [3H] TBOB). The assay is classed as cell membranes, Rattus norvegicus, Wistar, Cerebral cortex, Membrane. As to conditions: Not Active = under 50% inhibition at 10 µM.

By IC50 is commonly meant the point on the concentration scale where inhibition reaches its midpoint. As usually defined, the Ki is a measure of affinity in units of concentration, obtained from inhibition or displacement.

Chain of 5-hydroxytryptamine receptor 1B (P28564 whole entry): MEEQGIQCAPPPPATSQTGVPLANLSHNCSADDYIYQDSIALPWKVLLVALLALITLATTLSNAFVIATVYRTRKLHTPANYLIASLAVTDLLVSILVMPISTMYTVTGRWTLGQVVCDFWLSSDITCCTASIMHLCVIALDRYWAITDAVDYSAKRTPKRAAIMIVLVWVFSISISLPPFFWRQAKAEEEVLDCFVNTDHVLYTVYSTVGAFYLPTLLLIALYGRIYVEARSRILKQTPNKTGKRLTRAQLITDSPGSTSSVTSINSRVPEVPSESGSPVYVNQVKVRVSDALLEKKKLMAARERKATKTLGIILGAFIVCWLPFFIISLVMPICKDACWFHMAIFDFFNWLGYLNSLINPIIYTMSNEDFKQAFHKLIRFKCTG
Chain of C-C chemokine receptor type 2 (P41597 whole entry): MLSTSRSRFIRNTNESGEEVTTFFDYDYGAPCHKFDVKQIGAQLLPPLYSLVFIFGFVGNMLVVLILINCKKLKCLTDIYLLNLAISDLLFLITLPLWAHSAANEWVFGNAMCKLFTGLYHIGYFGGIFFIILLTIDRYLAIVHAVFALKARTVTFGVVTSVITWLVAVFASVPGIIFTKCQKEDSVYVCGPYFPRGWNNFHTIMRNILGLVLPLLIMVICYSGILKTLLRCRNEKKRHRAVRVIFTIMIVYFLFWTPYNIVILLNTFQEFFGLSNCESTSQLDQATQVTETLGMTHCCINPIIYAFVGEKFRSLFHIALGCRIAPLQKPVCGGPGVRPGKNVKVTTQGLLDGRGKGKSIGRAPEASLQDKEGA
Chain of Tyrosine-protein kinase Lck (P06239 whole entry): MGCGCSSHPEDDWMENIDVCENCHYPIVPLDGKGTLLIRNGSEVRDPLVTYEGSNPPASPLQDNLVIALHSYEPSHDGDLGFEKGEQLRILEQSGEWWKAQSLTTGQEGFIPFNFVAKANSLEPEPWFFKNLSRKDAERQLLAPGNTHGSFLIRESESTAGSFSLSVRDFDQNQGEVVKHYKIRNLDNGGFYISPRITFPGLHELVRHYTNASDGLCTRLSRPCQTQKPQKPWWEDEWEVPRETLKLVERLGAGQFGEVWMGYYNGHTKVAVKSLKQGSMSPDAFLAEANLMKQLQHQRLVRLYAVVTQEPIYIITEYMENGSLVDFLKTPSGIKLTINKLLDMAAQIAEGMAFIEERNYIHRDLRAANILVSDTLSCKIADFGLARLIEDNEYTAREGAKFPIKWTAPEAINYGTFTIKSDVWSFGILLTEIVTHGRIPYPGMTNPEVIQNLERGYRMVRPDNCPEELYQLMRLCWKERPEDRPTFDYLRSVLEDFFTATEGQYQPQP

As for `CC(C)C[C@H]1C(=O)N2CCC[C@H]2[C@]2(O)O[C@](NC(=O)[C@@H]3C=C4c5cccc6[nH]c(Br)c(c56)C[C@H]4N(C)C3)(C(C)C)C(=O)N12` [BROMOCRIPTINE], the IC50 is 103 nM in assay [1] (read-out: IC50); “Not Active” in assay [2]; “Not Active” in assay [3]; “Not Active” in assay [4]; “Not Active” in assay [5]; “Not Active” in assay [6] (insect cells). Besides, in assay [7], the IC50 entry was “Not Active”. Moreover, the figures for the Ki in assay [1] (read-out: Ki), in assay [5] and in assay [7] were 47 nM, “Not Active” and “Not Active”, respectively.

Consider `CS(=O)(=O)OCCCCOS(C)(=O)=O` [BUSULFAN], for which the IC50 entry in assay [1], in assay [2], in assay [3], in assay [4], in assay [5] and in assay [6] (insect cells) was “Not Active” throughout. In addition, the IC50 entry in assay [7] is “Not Active”. Further, the inhibition constant Ki entry in assay [5] and in assay [7] was “Not Active” throughout.

Turning to `O=C(/C=C/c1ccc(O)c(O)c1)OCCc1ccccc1` [CAFFEIC ACID PHENETHYL ESTER], the IC50 entry in assay [1] is “Not Active”; in assay [2] it was “Not Active”; in assay [3], “Not Active”; in assay [4] it was “Not Active”; in assay [5], “Not Active”; in assay [6] (read-out: IC50), 2890 nM. Further, the half-inhibitory concentration (IC50) result in assay [7] is listed as “Not Active”. Moreover, the inhibitory constant (Ki) result in assay [5] and in assay [7] was “Not Active” in each case.

`COc1cc(CNC(=O)CCCC/C=C/C(C)C)ccc1O` [CAPSAICIN]: the IC50 result in assay [1], in assay [2], in assay [3], in assay [4], in assay [5] and in assay [6] (insect cells) was “Not Active” each time. In assay [7], the IC50 result is listed as “Not Active”. Moreover, the Ki result in assay [5] and in assay [7] was “Not Active” in each case.

Turning to `NC(=O)N1c2ccccc2C=Cc2ccccc21` [CARBAMAZEPINE], the IC50 entry in assay [1], in assay [2], in assay [3], in assay [4], in assay [5] and in assay [6] (insect cells) was “Not Active” in each case. In assay [7], the IC50 entry is reported as “Not Active”. Moreover, the Ki result in assay [5] and in assay [7] was “Not Active” each time.

As to `CCOC(=O)n1ccn(C)c1=S` [CARBIMAZOLE], the IC50 result in assay [1], in assay [2], in assay [3], in assay [4], in assay [5] and in assay [7] was “Not Active” each time. The Ki result in assay [5], in assay [6] (insect cells) and in assay [7] was “Not Active” in each case.

As to `Oc1ccccc1O` [CATECHOL], the IC50 entry in assay [1], in assay [2], in assay [3], in assay [4], in assay [5] and in assay [6] (insect cells) was “Not Active” throughout. Further, the IC50 result in assay [7] is on record as “Not Active”. Further, the Ki entry in assay [5] and in assay [7] was “Not Active” in each case.

Turning to `CO[C@@]1(NC(=O)CSCC#N)C(=O)N2C(C(=O)O)=C(CSc3nnnn3C)CS[C@@H]21` [CEFMETAZOLE], the IC50 result in assay [1], in assay [2], in assay [3], in assay [4], in assay [5] and in assay [6] (insect cells) was “Not Active” in each case. For the same compound, in assay [7], the IC50 entry was “Not Active”. Also, the Ki entry in assay [5] and in assay [7] was “Not Active” throughout.

On to `CN(C(=O)CCCOc1ccc2[nH]c(=O)ccc2c1)C1CCCCC1` [CILOSTAMIDE], for which the IC50 result in assay [1], in assay [2], in assay [3], in assay [4], in assay [5] and in assay [6] (insect cells) was “Not Active” throughout. Further, the IC50 result in assay [7] was “Not Active”. Further, the Ki result in assay [5] and in assay [7] was “Not Active” throughout.

As for `CC(C)(Oc1ccc(C2CC2(Cl)Cl)cc1)C(=O)O` (stereo not given) [CIPROFIBRATE], the concentration for half-maximal inhibition (IC50) result in assay [1], in assay [2], in assay [3], in assay [4], in assay [5] and in assay [6] (insect cells) was “Not Active” each time. In addition, in assay [7], the IC50 result was “Not Active”. In addition, the Ki result in assay [5] and in assay [7] was “Not Active” throughout.

Regarding `Nc1nc(Cl)nc2c1ncn2[C@H]1C[C@H](O)[C@@H](CO)O1` [CLADRIBINE], the 50% inhibitory concentration (IC50) result in assay [1], in assay [2], in assay [3], in assay [4], in assay [5] and in assay [6] (insect cells) was “Not Active” each time. The IC50 result in assay [7] is recorded as “Not Active”. Also, the Ki result in assay [5] and in assay [7] was “Not Active” in each case.

For `CC[C@H]1OC(=O)[C@H](C)[C@@H](O[C@H]2C[C@@](C)(OC)[C@@H](O)[C@H](C)O2)[C@H](C)[C@@H](O[C@@H]2O[C@H](C)C[C@H](N(C)C)[C@H]2O)[C@](C)(OC)C[C@@H](C)C(=O)[C@H](C)[C@@H](O)[C@]1(C)O` [CLARITHROMYCIN], the IC50 entry in assay [1], in assay [2], in assay [3], in assay [4], in assay [5] and in assay [6] (insect cells) was “Not Active” in each case. In assay [7], the IC50 result is “Not Active”. Besides, the Ki entry in assay [5] and in assay [7] was “Not Active” in each case.

Consider `CCC[C@@H]1C[C@@H](C(=O)N[C@@H]([C@H]2O[C@H](SC)[C@H](O)[C@@H](O)[C@H]2O)[C@H](C)Cl)N(C)C1` [CLINDAMYCIN], for which the IC50 result in assay [1], in assay [2], in assay [3], in assay [4], in assay [5] and in assay [6] (insect cells) was “Not Active” throughout. In addition, in assay [7], the concentration for half-maximal inhibition (IC50) entry is given as “Not Active”. Besides, the Ki entry in assay [5] and in assay [7] was “Not Active” each time.

On to `O=C(O)c1cc(=O)c2c(OCC(O)COc3cccc4oc(C(=O)O)cc(=O)c34)cccc2o1` [CROMOLYN], for which the IC50 result in assay [1], in assay [2], in assay [3], in assay [4], in assay [5] and in assay [6] (insect cells) was “Not Active” each time. The IC50 entry in assay [7] is “Not Active”. In addition, the Ki result in assay [5] and in assay [7] was “Not Active” each time.

As to `O=P1(N(CCCl)CCCl)NCCCO1` (stereo not given) [CYCLOPHOSPHAMIDE ANHYDROUS], the IC50 entry in assay [1], in assay [2], in assay [3], in assay [4], in assay [5] and in assay [6] (insect cells) was “Not Active” in each case. Moreover, in assay [7], the IC50 result was “Not Active”. Moreover, the Ki entry in assay [5] and in assay [7] was “Not Active” each time.

`CC(=O)O[C@]1(C(C)=O)CC[C@H]2[C@@H]3C=C(Cl)C4=CC(=O)[C@@H]5C[C@@H]5[C@]4(C)[C@H]3CC[C@@]21C` [CYPROTERONE ACETATE]: the IC50 entry in assay [1], in assay [2], in assay [3], in assay [4], in assay [5] and in assay [6] (insect cells) was “Not Active” in each case. Further, the half-maximal inhibitory concentration (IC50) entry in assay [7] was “Not Active”. The Ki result in assay [5] and in assay [7] was “Not Active” each time.
